From patent publication US6737383B1, “Herbicidal oxadiazolidines” (priority 1999, dated 2004)

Assays:
bedstraw = experiment: Test B pre/postemergence bedstraw; format: in vivo, Galium aparine; details: scale of 0 to 10 where 0 is no effect and 10 is complete control; for Plant response rating, Bedstraw: Preemergence
In short: (§1)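 Test chemicals in a non-phytotoxic solvent mixture with surfactant were sprayed preemergence onto planted seeds and postemergence onto plants 2 to 18 cm tall (1- to 4-leaf stage). After twelve to sixteen days in a greenhouse, injury was visually rated against untreated controls from 0 (no effect) to 10 (complete control).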

blackgrass = experiment: Test B pre/postemergence blackgrass; format: in vivo, Alopecurus myosuroides
In short: as §1

surinam grass = experiment: Test B pre/postemergence surinam grass; format: in vivo, Brachiaria decumbens
In short: as §1

corn = experiment: Test B pre/postemergence corn; format: in vivo, Zea mays
In short: as §1

crabgrass = experiment: Test B pre/postemergence crabgrass; format: in vivo, Digitaria sanguinalis
In short: as §1

giant foxtail = experiment: Test B pre/postemergence giant foxtail; format: in vivo, Setaria faberii
In short: as §1

rape = experiment: Test B pre/postemergence rape; format: in vivo, Brassica napus; details: for Plant response rating, Rape: scale of 0 to 10 where 0 is no effect and 10 is complete control
In short: as §1

sugar beet = experiment: Test B pre/postemergence sugar beet; format: in vivo, Beta vulgaris; details: for Plant response rating, Sugarbeets: scale of 0 to 10 where 0 is no effect and 10 is complete control
In short: as §1

velvetleaf = experiment: Test B pre/postemergence velvetleaf; format: in vivo, Abutilon theophrasti; details: for Plant response rating, Velvetleaf: scale of 0 to 10 where 0 is no effect and 10 is complete control
In short: as §1

wheat = experiment: Test B pre/postemergence wheat; format: in vivo, Triticum aestivum; details: for Plant response rating, Wheat: scale of 0 to 10 where 0 is no effect and 10 is complete control
In short: as §1

wild oat = experiment: Test B pre/postemergence wild oat; format: in vivo, Avena fatua; details: for Plant response rating, Wild oats: scale of 0 to 10 where 0 is no effect and 10 is complete control
In short: as §1

purple nutsedge = experiment: Test B pre/postemergence purple nutsedge; format: in vivo, Cyperus rotundus; details: for Plant response rating, Nutsedge: scale of 0 to 10 where 0 is no effect and 10 is complete control
In short: as §1

rice = experiment: Test B flood test rice; format: in vivo, Oryza sativa
In short: (§2)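 Read-out is a visual response score from 0 (no effect) to 10 (complete control), assigned by comparison with untreated controls. Treatment was applied at the 2-leaf stage, and plants stayed in the greenhouse for twelve to sixteen days before scoring.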

smallflower flatsedge = experiment: Test B flood test smallflower flatsedge; format: in vivo, Cyperus difformis
In short: as §2

duck salad = experiment: Test B flood test duck salad; format: in vivo, Heteranthera limosa
In short: as §2

bamyardgrass = experiment: Test B flood test barnyardgrass; format: in vivo, Echinochloa crus-galli
In short: as §2

[1] = Postemergence, Rate 500 g/ha, scale of 0 to 10 where 0 is no effect and 10 is complete control
[2] = Preemergence, Rate 62 g/ha, scale of 0 to 10 where 0 is no effect and 10 is complete control
[3] = Preemergence, Rate 125 g/ha, scale of 0 to 10 where 0 is no effect and 10 is complete control
[4] = Preemergence, Rate 250 g/ha, scale 0 to 10, 0 is no effect, 10 is complete control
[5] = Preemergence, Rate 500 g/ha, scale 0 to 10, 0 is no effect, 10 is complete control
[6] = Rate 62 g/ha, Postemergence, scale 0 to 10 (0 no effect, 10 complete control)
[7] = Rate 125 g/ha, Postemergence, scale 0 to 10, 0 is no effect, 10 is complete control
[8] = Postemergence, Rate 250 g/ha, scale 0 to 10
[9] = Rate 62 g/ha, flood test species, Pre-emergence, visual evaluation after twelve to sixteen days
[10] = Rate 125 g/ha, under heading Pre-emergence, flood test species, visual evaluation after twelve to sixteen days
[11] = Rate 250 g/ha, Pre-emergence (flood test species), scale 0 to 10, 0 is no effect, 10 is complete control
[12] = Rate 500 g/ha, Pre-emergence, flood test species, scale 0 to 10 (0 no effect, 10 complete control)

Structure (SMILES): CC[Si](C)(C)Cn1c(=O)on(C(=O)N(c2ccc(Cl)cc2)C(C)C)c1=O [Compound 460]
- Bedstraw plant response rating (bedstraw; Postemergence, Rate 500 g/ha): 8
- Plant response rating, Bedstraw (bedstraw; Rate 62 g/ha): 0
- Plant response rating, Bedstraw (bedstraw; Rate 125 g/ha): 0
- Blackgrass plant response rating (blackgrass; [1]): 8
- Plant response rating, Blackgrass (blackgrass; [2]): 0
- Plant response rating, Blackgrass (blackgrass; [3]): 0
- Blackgrass plant response rating (blackgrass; [4]): 0
- Blackgrass plant response rating (blackgrass; [5]): 3
- Blackgrass plant response rating (blackgrass; [6]): 2
- B. signalgrass plant response rating (surinam grass; Postemergence, Rate 250 g/ha, scale 0 to 10, 0 no effect, 10 complete control): 0
- B. signalgrass plant response rating (surinam grass; [1]): 2
- Plant response rating, B. signalgrass (surinam grass; [2]): 0
- Plant response rating, B. signalgrass (surinam grass; [3]): 0
- B. signalgrass plant response rating (surinam grass; [4]): 0
- B. signalgrass plant response rating (surinam grass; [5]): 0
- B. signalgrass plant response rating (surinam grass; [6]): 0
- B. signalgrass plant response rating (surinam grass; [7]): 0
- Corn plant response rating (corn; [8]): 0
- Corn plant response rating (corn; [1]): 0
- Plant response rating, Corn (corn; [2]): 0
- Plant response rating, Corn (corn; [3]): 0
- Corn plant response rating (corn; [4]): 0
- Corn plant response rating (corn; [5]): 2
- Corn plant response rating (corn; [6]): 0
- Corn plant response rating (corn; [7]): 0
- Crabgrass plant response rating (crabgrass; [8]): 9
- Crabgrass plant response rating (crabgrass; [1]): 9
- Plant response rating, Crabgrass (crabgrass; [2]): 0
- Plant response rating, Crabgrass (crabgrass; [3]): 1
- Crabgrass plant response rating (crabgrass; [4]): 6
- Crabgrass plant response rating (crabgrass; [5]): 9
- Crabgrass plant response rating (crabgrass; [6]): 3
- Crabgrass plant response rating (crabgrass; [7]): 6
- Giant foxtail plant response rating (giant foxtail; [8]): 0
- Giant foxtail plant response rating (giant foxtail; [1]): 1
- Plant response rating, Giant foxtail (giant foxtail; [2]): 0
- Plant response rating, Giant foxtail (giant foxtail; [3]): 6
- Giant foxtail plant response rating (giant foxtail; [4]): 8
- Giant foxtail plant response rating (giant foxtail; [5]): 9
- Giant foxtail plant response rating (giant foxtail; [6]): 0
- Giant foxtail plant response rating (giant foxtail; [7]): 0
- Rape plant response rating (rape; [8]): 0
- Plant response rating, Rape (rape; Preemergence, Rate 62 g/ha): 0
- Plant response rating, Rape (rape; Preemergence, Rate 125 g/ha): 0
- Rape plant response rating (rape; [4]): 0
- Rape plant response rating (rape; [5]): 0
- Rape plant response rating (rape; [6]): 0
- Rape plant response rating (rape; [7]): 0
- Sugarbeets plant response rating (sugar beet; [8]): 0
- Plant response rating, Sugarbeets (sugar beet; Preemergence, Rate 62 g/ha): 0
- Plant response rating, Sugarbeets (sugar beet; Preemergence, Rate 125 g/ha): 0
- Sugarbeets plant response rating (sugar beet; [4]): 0
- Sugarbeets plant response rating (sugar beet; [5]): 0
- Sugarbeets plant response rating (sugar beet; [6]): 0
- Sugarbeets plant response rating (sugar beet; [7]): 0
- Velvetleaf plant response rating (velvetleaf; [8]): 0
- Plant response rating, Velvetleaf (velvetleaf; Preemergence, Rate 62 g/ha): 0
- Plant response rating, Velvetleaf (velvetleaf; Preemergence, Rate 125 g/ha): 0
- Velvetleaf plant response rating (velvetleaf; [4]): 0
- Velvetleaf plant response rating (velvetleaf; [5]): 0
- Velvetleaf plant response rating (velvetleaf; [6]): 0
- Velvetleaf plant response rating (velvetleaf; [7]): 0
- Wheat plant response rating (wheat; [8]): 0
- Plant response rating, Wheat (wheat; Preemergence, Rate 62 g/ha): 0
- Plant response rating, Wheat (wheat; Preemergence, Rate 125 g/ha): 0
- Wheat plant response rating (wheat; [4]): 0
- Wheat plant response rating (wheat; [5]): 0
- Wheat plant response rating (wheat; [6]): 0
- Wheat plant response rating (wheat; [7]): 0
- Wild oats plant response rating (wild oat; [8]): 0
- Plant response rating, Wild oats (wild oat; Preemergence, Rate 62 g/ha): 0
- Plant response rating, Wild oats (wild oat; Preemergence, Rate 125 g/ha): 0
- Wild oats plant response rating (wild oat; [4]): 0
- Wild oats plant response rating (wild oat; [5]): 0
- Wild oats plant response rating (wild oat; [6]): 0
- Wild oats plant response rating (wild oat; [7]): 0
- Nutsedge plant response rating (purple nutsedge; [8]): 0
- Plant response rating, Nutsedge (purple nutsedge; Preemergence, Rate 62 g/ha): 0
- Plant response rating, Nutsedge (purple nutsedge; Preemergence, Rate 125 g/ha): 0
- Nutsedge plant response rating (purple nutsedge; [4]): 0
- Nutsedge plant response rating (purple nutsedge; [5]): 0
- Nutsedge plant response rating (purple nutsedge; [6]): 0
- Nutsedge plant response rating (purple nutsedge; [7]): 0
- Plant response rating, Rice (0 to 10 scale, 0 is no effect, 10 is complete control) (rice; [9]): 0
- Rice plant response rating (0 to 10 scale, 0 is no effect, 10 is complete control) (rice; [10]): 0
- Rice plant response rating (rice; [11]): 0
- Rice plant response rating (rice; [12]): 0
- Plant response rating, S. Flatsedge (0 to 10 scale, 0 is no effect, 10 is complete control) (smallflower flatsedge; [9]): 0
- S. Flatsedge plant response rating (0 to 10 scale, 0 is no effect, 10 is complete control) (smallflower flatsedge; [10]): 0
- S. Flatsedge plant response rating (smallflower flatsedge; [11]): 0
- S. Flatsedge plant response rating (smallflower flatsedge; [12]): 0
- Plant response rating, Ducksalad (0 to 10 scale, 0 is no effect, 10 is complete control) (duck salad; [9]): 0
- Ducksalad plant response rating (0 to 10 scale, 0 is no effect, 10 is complete control) (duck salad; [10]): 0
- Ducksalad plant response rating (duck salad; [11]): 0
- Ducksalad plant response rating (duck salad; [12]): 0
- Plant response rating, Barnyardgrass (0 to 10 scale, 0 is no effect, 10 is complete control) (bamyardgrass; [9]): 0
- Barnyardgrass plant response rating (0 to 10 scale, 0 is no effect, 10 is complete control) (bamyardgrass; [10]): 0
- Barnyardgrass plant response rating (bamyardgrass; [11]): 0
- Barnyardgrass plant response rating (bamyardgrass; [12]): 0
